In the NIST ThermoML archive (doi:10.1021/acs.jced.5b00197):

Assay: refractive index (Na D-line) (dimensionless); xn = mol fraction of the nth substance listed
Conditions: 94.64 kPa, Liquid, Standard Abbe refractometry

CC(=O)O [acetic acid] + O
refractive index
Conditions	293.15 K	298.15 K	303.15 K
x1 = 0.0322	1.34079	1.34007	1.33927
x1 = 0.0697	1.34792	1.34695	1.34593
x1 = 0.114	1.35489	1.35372	1.3525
x1 = 0.167	1.3609	1.35957	1.35822
x1 = 0.231	1.36583	1.36436	1.36288
x1 = 0.31	1.37062	1.369	1.36736
x1 = 0.412	1.37406	1.37233	1.37058
x1 = 0.545	1.37703	1.37519	1.37331
x1 = 0.629	1.37724	1.37545	1.37349
x1 = 0.729	1.37721	1.3753	1.37335
x1 = 0.85	1.37559	1.37359	1.3716
x1 = 1	1.37224	1.37012	1.36809

CC(=O)O [acetic acid] + Cc1ccccc1
refractive index
Conditions	293.15 K	298.15 K	303.15 K
x1 = 0.146	1.48448	1.48174	1.47906
x1 = 0.277	1.47082	1.4681	1.46535
x1 = 0.397	1.45878	1.45618	1.45352
x1 = 0.506	1.44593	1.44332	1.44065
x1 = 0.605	1.43372	1.43116	1.42842
x1 = 0.697	1.4212	1.41872	1.41617
x1 = 0.782	1.40891	1.4065	1.40452
x1 = 0.859	1.39681	1.39453	1.39228
x1 = 0.897	1.38731	1.38466	1.38303
x1 = 0.932	1.38235	1.38029	1.3782
x1 = 0.967	1.37721	1.3752	1.37315
x1 = 1	1.37224	1.37012	1.36809
